# Experimental data: patent US12522594B2, “2-heteroaryl-3-oxo-2,3-dihydropyridazine-4-carboxamides for the treatment of cancer” (Deutsches Krebsforschungszentrum, priority 2017, dated 2026)
# pIC50: −log10 of the molar value. Values joined by “and” are separate entries in the source; they are usually repeats but may differ in a detail not shown here. Equal values may be shown once.
# Assays:
# Type in all cases: cell-based
# AHR [1] = molecular target: T1, AHR (Homo sapiens, UniProt P35869); assay: In vitro assay 1: antagonism in human cell line (transactivation assay, U87 cells prestimulated with kynurenic acid, DRE firefly luciferase reporter); design: host or cells: U87 glioblastoma cells, stably transfected with DRE firefly luciferase and renilla reporter constructs; conditions: 150 uM kynurenic acid, 20 hours, read-out: Assay 1: AHR-luc Hum Antagonism IC50
# T1 sequence (P35869 11-848): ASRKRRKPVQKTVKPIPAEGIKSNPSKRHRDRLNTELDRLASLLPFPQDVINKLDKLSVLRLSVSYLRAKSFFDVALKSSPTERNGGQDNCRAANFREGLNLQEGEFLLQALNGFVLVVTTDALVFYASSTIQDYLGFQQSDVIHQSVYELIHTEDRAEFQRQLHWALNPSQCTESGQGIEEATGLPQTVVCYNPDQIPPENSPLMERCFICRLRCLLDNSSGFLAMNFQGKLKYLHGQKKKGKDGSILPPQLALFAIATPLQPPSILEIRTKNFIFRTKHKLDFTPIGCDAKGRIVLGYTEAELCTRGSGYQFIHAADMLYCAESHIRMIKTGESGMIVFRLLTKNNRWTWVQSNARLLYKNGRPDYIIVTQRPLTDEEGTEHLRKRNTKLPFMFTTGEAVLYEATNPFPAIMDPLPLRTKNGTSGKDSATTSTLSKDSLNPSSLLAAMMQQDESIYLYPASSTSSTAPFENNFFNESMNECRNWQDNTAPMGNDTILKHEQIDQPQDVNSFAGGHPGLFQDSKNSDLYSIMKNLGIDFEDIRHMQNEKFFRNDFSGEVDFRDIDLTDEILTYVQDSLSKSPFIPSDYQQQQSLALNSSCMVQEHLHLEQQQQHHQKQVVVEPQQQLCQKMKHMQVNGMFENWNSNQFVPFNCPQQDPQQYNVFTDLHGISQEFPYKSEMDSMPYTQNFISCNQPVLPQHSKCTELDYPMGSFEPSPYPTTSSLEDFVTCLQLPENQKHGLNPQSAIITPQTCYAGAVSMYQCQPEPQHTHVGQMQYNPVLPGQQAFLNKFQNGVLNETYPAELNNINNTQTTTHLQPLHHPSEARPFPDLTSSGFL
# In short: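 Antagonism measured after kynurenic acid prestimulation in U87 cells that express AHR endogenously and stably harbor a firefly luciferase gene under DRE control plus a constitutive renilla construct. Positive and negative controls served for normalization.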
# human monocytes = assay: In vitro assay 4: rescue of TNFα production from human primary monocytes (LPS + KA); conditions: one value per donor; for Individual Donors Conc of highest rescue: concentration (of 1, 0.3, 0.1 uM tested) at which highest TNFα rescue was observed; for Individual Donors % rescue TNFα normalised to ref cmpd: human monocytes, 10 ng/mL LPS + 200 uM KA, 18 hours, highest percent rescue relative to highest rescue with GNF-351
# Description: In Vitro Assay 4: Rescue of TNFα Production from Human Primary Monocytes
# The ability of the substances to enhance immune cell activity was determined. The substances were tested for their capacity to reverse KA-induced inhibition of TNFα production by LPS-stimulated human monocytes. Human monocytes were purified by negative selection from donor PBMCs using Miltenyi beads and seeded at 2×10^5 cells/well in complete growth medium (RPMI 1640, 10% FCS). Monocytes were incubated with 10 ng/mL LPS (O127:B8, #L4516, Sigma) and 200 uM KA (#3375, Sigma) and substances were added at concentrations of 1 uM, 0.3 uM and 0.1 uM and cultured for 18 hours. LPS alone served as the positive control. TNFα production in the supernatant was measured by Meso Scale Discovery immunoassay and the ability of the substances to rescue TNFα production was calculated as a percentage of LPS stimulation and KA-induced inhibition and normalized to the donor-specific response with the reference AHR antagonist compound GNF-351 (Smith et al., J Pharmacol Exp Ther, 2011, 338(1):318-27).
# AHR [2] = molecular target: T1, AHR; assay: In vitro assay 3: AHR-regulated CYP1A1 expression in human cell line (U937, qPCR, KA stimulation); conditions: U937 cells, 200 uM KA, 6 hours, CYP1A1 expression by qPCR; read-out: Assay 3: Hum CYP1A1 Antagonism IC50
# In short: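 U937 human monocytic cells were stimulated with 200 uM KA for 6 h, with or without compound at eight concentrations from 1 nM to 3 uM, in duplicate. CYP1A1 mRNA was quantified by Taqman qPCR as fold expression normalised to HPRT. Unstimulated cells served as negative control.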
# AHR [3] = molecular target: T1, AHR; assay: In vitro assay 2: agonism in human cell line (transactivation assay, U87 cells, DRE firefly luciferase reporter); design: host or cells: U87 glioblastoma cells, stably transfected with DRE firefly luciferase and renilla reporter constructs; conditions: no kynurenic acid, 20 hours, read-out: Assay 2: AHR-luc Hum Agonism IC50
# In short: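 Agonist readout: DRE firefly luciferase, with constitutive renilla reporter, in stably transfected U87 cells expressing AHR endogenously. Normalization used positive control (300 uM kynurenic acid) and negative control.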
SMILES,pIC50 (AHR [1]),Individual Donors Conc of highest rescue (human monocytes),Individual Donors % rescue TNFα normalised to ref cmpd (human monocytes),pIC50 (AHR [2]),pIC50 (AHR [3])
"CC(C)[C@@H](CO)NC(=O)c1cc(-c2ccc(Cl)cc2)nn(-c2cnn(C)c2)c1=O [Example 16, 6-(4-Chlorophenyl)-N-[(2S)-1-hydroxy-3-methylbutan-2-yl]-2-(1-methyl-1H-pyrazol-4-yl)-3-oxo-2,3-dihydropyridazine-4-carboxamide]",8.43,1 µM,249% and 165%,8.60,< 4.70
"Cn1cc(-n2nc(-c3ccc(Cl)cc3)cc(C(=O)NCC(O)C(F)(F)F)c2=O)cn1 (centres unmarked) [Example 18, 6-(4-Chlorophenyl)-2-(1-methyl-1H-pyrazol-4-yl)-3-oxo-N-(3,3,3-trifluoro-2-hydroxypropyl)-2,3-dihydropyridazine-4-carboxamide]",7.85,1 μM (2×) and 0.3 μM (2×),83% and 73% and 76% and 105%,7.95,< 4.70
"Cn1cc(-n2nc(-c3ccc(Cl)cc3)cc(C(=O)NCC(O)C(F)F)c2=O)cn1 (centres unmarked) [Example 21, 6-(4-Chlorophenyl)-N-(3,3-difluoro-2-hydroxypropyl)-2-(1-methyl-1H-pyrazol-4-yl)-3-oxo-2,3-dihydropyridazine-4-carboxamide]",7.55,0.3 µM and 1 µM,87% and 77%,7.74,< 4.70
"Cn1cc(-n2nc(-c3ccc(OC(F)(F)F)cc3)cc(C(=O)N[C@H](CO)C(F)(F)F)c2=O)cn1 [Example 47, 2-(1-Methyl-1H-pyrazol-4-yl)-3-oxo-N-[(2R)-1,1,1-trifluoro-3-hydroxypropan-2-yl]-6-[4-(trifluoromethoxy)phenyl]-2,3-dihydropyridazine-4-carboxamide]",8.82,1 µM,68% and 64%,8.78,< 4.70
"O=C(NC[C@@H](O)CO)c1cc(-c2ccc(C(F)(F)F)cc2)nn(-c2cccnc2)c1=O [Example 113, N-[(2R)-2,3-Dihydroxypropyl]-3-oxo-2-(pyridin-3-yl)-6-[4-(trifluoromethyl)phenyl]-2,3-dihydropyridazine-4-carboxamide]",7.32,1 µM,91% and 51%,6.98,< 4.70
"O=C(N[C@@H]1CCC[C@@H]1O)c1cc(-c2ccc(Cl)cc2)nn(-c2cccnc2)c1=O [Example 138, 6-(4-Chlorophenyl)-N-[(1R,2S)-2-hydroxycyclopentyl]-3-oxo-2-(pyridin-3-yl)-2,3-dihydropyridazine-4-carboxamide]",8.04,0.1 µM and 0.3 µM,49% and 84%,8.12,< 4.70
"O=C(N[C@H]1CCC[C@H]1O)c1cc(-c2ccc(OC(F)(F)F)cc2)nn(-c2cccnc2)c1=O [Example 147, N-[(1S,2R)-2-Hydroxycyclopentyl]-3-oxo-2-(pyridin-3-yl)-6-[4-(trifluoromethoxy)phenyl]-2,3-dihydropyridazine-4-carboxamide]",7.91,0.1 µM and 0.3 µM,50% and 89%,7.95,< 4.70
